# Measured values: article PMC3929086, “Targeted manipulation of the sortilin–progranulin axis rescues progranulin haploinsufficiency” (Human Molecular Genetics, 2013)
# Entries after “also recorded” stand apart in the source; their conditions may differ.
# B1: rPGRN: wild-type human recombinant PGRN protein from stable HEK293 cells (protein)
# chain: TRCPDGQFCPVACCLDPGGASYSCCRPLLDKWPTTLSRHLGGPCQVDAHCSAGHSCIFTVSGTSSCCPFPEAVACGDGHHCCPRGFHCSADGRSCFQRSGNNSVGAIQCPDSQFECPDFSTCCVMVDGSWGCCPMPQASCCEDRVHCCPHGAFCDLVHTRCITPTGTHPLAKKLPAQRTNRAVALSSSVMCPDARSRCPDGSTCCELPSGKYGCCPMPNATCCSDHLHCCPQDTVCDLIQSKCLSKENATTDLLTKLPAHTVGDVKCDMEVSCPDGYTCCRLQSGAWGCCPFTQAVCCEDHIHCCPAGFTCDTQKGTCEQGPHQVPWMEKAPAHLSLPDPQALKRDVPCDNVSSCPSSDTCCQLTSGEWGCCPIPEAVCCSDHQHCCPQGYTCVAEGQCQRGSEIVAGLEKMPARRASLSHPRDIGCDQHTSCPVGQTCCPSLGGSWACCQLPHAVCCEDRQHCCPAGYTCNVKARSCEKEVVSAQPATFLARSPHVGVKDVECGEGHFCHDNQTCCRDNRQGWACCPYRQGVCCADRRHCCPAGFRCAARGTKCLRREAPRWDAPLRDPALRQLL
# modifications: left off: His6, N-terminal, state not stated
# B2: rPGRN1-588: recombinant carboxyl-terminal-truncated PGRN 1–588 (protein)
# chain: TRCPDGQFCPVACCLDPGGASYSCCRPLLDKWPTTLSRHLGGPCQVDAHCSAGHSCIFTVSGTSSCCPFPEAVACGDGHHCCPRGFHCSADGRSCFQRSGNNSVGAIQCPDSQFECPDFSTCCVMVDGSWGCCPMPQASCCEDRVHCCPHGAFCDLVHTRCITPTGTHPLAKKLPAQRTNRAVALSSSVMCPDARSRCPDGSTCCELPSGKYGCCPMPNATCCSDHLHCCPQDTVCDLIQSKCLSKENATTDLLTKLPAHTVGDVKCDMEVSCPDGYTCCRLQSGAWGCCPFTQAVCCEDHIHCCPAGFTCDTQKGTCEQGPHQVPWMEKAPAHLSLPDPQALKRDVPCDNVSSCPSSDTCCQLTSGEWGCCPIPEAVCCSDHQHCCPQGYTCVAEGQCQRGSEIVAGLEKMPARRASLSHPRDIGCDQHTSCPVGQTCCPSLGGSWACCQLPHAVCCEDRQHCCPAGYTCNVKARSCEKEVVSAQPATFLARSPHVGVKDVECGEGHFCHDNQTCCRDNRQGWACCPYRQGVCCADRRHCCPAGFRCAARGTKCLRREAPRWDAPLRDPA
# modifications: left off: His6, N-terminal, state not stated
# B3: DyL-rPGRN: DyLight™-594 fluorescence-labeled rPGRN (conjugate, UniProt P28799 1-593, looked up)
# chain: MWTLVSWVALTAGLVAGTRCPDGQFCPVACCLDPGGASYSCCRPLLDKWPTTLSRHLGGPCQVDAHCSAGHSCIFTVSGTSSCCPFPEAVACGDGHHCCPRGFHCSADGRSCFQRSGNNSVGAIQCPDSQFECPDFSTCCVMVDGSWGCCPMPQASCCEDRVHCCPHGAFCDLVHTRCITPTGTHPLAKKLPAQRTNRAVALSSSVMCPDARSRCPDGSTCCELPSGKYGCCPMPNATCCSDHLHCCPQDTVCDLIQSKCLSKENATTDLLTKLPAHTVGDVKCDMEVSCPDGYTCCRLQSGAWGCCPFTQAVCCEDHIHCCPAGFTCDTQKGTCEQGPHQVPWMEKAPAHLSLPDPQALKRDVPCDNVSSCPSSDTCCQLTSGEWGCCPIPEAVCCSDHQHCCPQGYTCVAEGQCQRGSEIVAGLEKMPARRASLSHPRDIGCDQHTSCPVGQTCCPSLGGSWACCQLPHAVCCEDRQHCCPAGYTCNVKARSCEKEVVSAQPATFLARSPHVGVKDVECGEGHFCHDNQTCCRDNRQGWACCPYRQGVCCADRRHCCPAGFRCAARGTKCLRREAPRWDAPLRDPALRQLL
# modifications: full-length DyLight 594 label
# notes: DyLight™-594 fluorescence-labeled rPGRN
# How the values were obtained:
# [1] = tested on: SORT1-mediated PGRN endocytosis; experiment: Quantitative DyL-rPGRN endocytosis assay in COS-1^SORT1 cells; format: cell-based, human; settings: 1 h; for inhibition of full-length PGRN endocytosis: COS-1^SORT1, ligand 10 μM (Fig. 4 legend), added simultaneously with DyL-rPGRN, vs vehicle
# Method: COS-1 cells seeded on a 96-well black plate 1 day before were transfected with pCMV-SORT1 vector. After 24 h, cells were treated with fluorescence-tagged rPGRN (DyL-rPGRN) pre-labeled by DyLight™ 594 antibody labeling kit (Thermo Scientific). The DyL-rPGRN was diluted in OptiMEM to tested concentrations and incubated with the cells for 1 h for endocytosis. The cells were then washed with cold PBS and then fixed by 4% paraformaldehyde. After washing twice, each well was filled with PBS prior scanning. The total PGRN fluorescent signal from the cells was obtained by a plate reader with 593/618 nm (Ex/Em) settings. The endocytosis signal was normalized by the total nuclei signal obtained by staining with a Hoechst 33342 dye. Baseline endocytosis signal was defined as a signal from medium-only-treated cells, whereas the 100% endocytosis level was set as the signal obtained from cells treated with 50 nM DyL-rPGRN. For testing SORT1 ligands, DyL-rPGRN and the peptide were added simultaneously to the cells. For testing of PGRN binders, the binder was pre-incubated with DyL-rPGRN for 1 h before adding to the cells. For qualitative analysis, images from each well were captured by BD Pathway 855 system using a 20× magnification setting.
# [2] = tested on: PGRN-SORT1 interaction; experiment: PGRN-SORT1 co-immunoprecipitation; format: biochemical, human; settings: HEK293 lysate with Flag-SORT1, 100 nM rPGRN, peptide at 10 M (sic; method 20 μM), densitometry
# Method: HEK293T cells were transfected empty vector or pCMV-SORT1-Flag vector for 48 h. Then, cells were lysed by using Co-IP buffer. Pre-incubation was performed with 300 μg of lysate protein mixed with 20 μM NTS, human PGRN(588–593) peptide or mouse PGRN(584–589) peptide for 1 h. Then, rPGRN (100 nM) was added into the protein G beads pre-cleared supernatant and mixed for 30 min. Next, anti-Flag M2 agarose (Sigma) was added and mixed for another 4 h. The agarose was collected by centrifugation at 1000 g for 3 min and washed with Co-IP buffer six times. Captured protein was eluted from the beads using loading buffer and analyzed by western blot.
# [3] = tested on: SORT1–PGRN interaction; experiment: MSD-based SORT1–PGRN interaction assay; format: biochemical, human; settings: 200 nM tagged rPGRN, SORT1-Flag captured on MSD plate
# Method: M17 cells were transfected with pCMV-SORT1-Flag for 48 h. Then, the cell lysate was harvested by the same method used in the co-immunoprecipitation assay. Expression of SORT1-Flag protein was confirmed by western blot. MSD plate was first coated with the Flag M2 antibody (Sigma). Following an overnight incubation at 4°C, the plate was blocked for 2 h and then washed prior to addition of 5 µg/well of lysate protein containing SORT1-Flag protein. After overnight incubation at 4°C, it was then washed and added with 200 nM of either N-6His- or C-6His-tagged rPGRN pre-incubated with either vehicle, 20 µM or 200 µM of BVFP, for 30 min at room temperature. Then plate was then incubated for 2 h, washed and incubated with a mixture of PCDGF antibody and a SULFO-TAG-labeled anti-rabbit IgG antibody for 2 h. After final wash, the plate was read by the MSD Sector Imager 2400.
# [4] = tested on: SORT1; experiment: PGRN endocytosis in M17 cells overexpressing SORT1; format: cell-based; settings: for endocytosis of rPGRN: M17^SORT1 cells, rPGRN 500 ng/ml, 60 min, immunofluorescence
# Method: M17 cells seeded in 12-well culture plates (western blot) or on glass coverslips in 24-well culture plate (immunofluorescence) were transfected with pEGFP-N1 (Clontech) or pCMV-SORT1 (OriGene) vectors. Next day, the cells were changed into serum-free medium 1 h before addition of rPGRN (500 ng/ml) and treated for 60 min. The cells were then put on ice and washed with cold PBS. For western blot, cells were lysed in cold M-Per protein extraction buffer followed by standard procedures as mentioned. For immunofluorescence analyses, cells were fixed in 4% paraformaldehyde solution followed by PBS washes. The cells were then incubated in blocking buffer (PBS, 5% goat serum, 0.1% saponin) for 1 h at room temperature followed by incubation in primary antibody overnight at 4°C. The cells were incubated with secondary antibodies (1:1000) for 1 h at room temperature. The coverslips were then mounted onto slides and waited overnight before analysis. Image analysis was performed by Zeiss LSM 510 META confocal microscope using 60× magnification setting.
# [5] = tested on: neutrophil elastase; experiment: Neutrophil elastase digestion of synthetic PGRN peptide, MALDI-MS; format: in vitro ADME
# Method: An enzymatic reaction was set up with 7 μg of custom-synthesized PGRN(584–593) peptide (Mayo peptide synthesis core) and 20 μg of NE in a 25 μl reaction at 37°C. Every 10 min, 4 μl of the mixture was collected and diluted 10 times in a solvent mixture (50% acetonitrile:50% water:0.1% acetic acid) until 1 h had passed. For MALDI-MS analysis, 1 μl of the diluted reaction mixture was dried on a MS gold chip and then layered with a concentrated sinipinic acid matrix on top for crystallization. Afterwards, the samples were analyzed by the Bio-Rad MALDI-MS system.
# [6] = tested on: SORT1; experiment: SORT1 protein level in M17 cells (western blot); format: cell-based; settings: M17, rPGRN at 50 ng/ml, 1, 2 and 4 hours
# Method: PGRN, SORT1, GFP, GAPDH and β-actin proteins were analyzed using 10% Tris–glycine polyacrylamide gel by SDS–PAGE. After electrophoresis, proteins on gel were transblotted to PVDF membranes followed by standard immunoblotting protocols.
# [7] = tested on: PGRN endocytosis in SORT1^KO-hESCs; experiment: DyL-rPGRN endocytosis in SORT1^KO-hESCs; format: cell-based, human; settings: SORT1^KO-hESC compared with WT-hESC
# Excerpt: To determine whether BVFP, when bound to PGRN, disrupts full-length PGRN and SORT1 binding, we devised a SORT1-dependent rPGRN precipitation assay utilizing the Meso-Scale Discovery (MSD) system (Supplementary Material, Fig. S4A and B). […] To include a higher-affinity PGRN588–593 motif binder as a positive control, an antibody targeting the motif, PGRN-CT antibody, was made for validating the approach (Fig. 5F). […] First, we found SORT1 was abundantly expressed in the wild-type hESCs (Fig. 5H). Similar to the results from COS-1^SORT1 cells, BVFP and PGRN-CT antibody inhibited endocytosis of DyL-rPGRN by 22 and 39%, respectively, under the same experimental conditions in wild-type hESCs (Fig. 5I left).
# COS-1 cells seeded on a 96-well black plate 1 day before were transfected with pCMV-SORT1 vector. After 24 h, cells were treated with fluorescence-tagged rPGRN (DyL-rPGRN) pre-labeled by DyLight™ 594 antibody labeling kit (Thermo Scientific). The DyL-rPGRN was diluted in OptiMEM to tested concentrations and incubated with the cells for 1 h for endocytosis. The cells were then washed with cold PBS and then fixed by 4% paraformaldehyde. After washing twice, each well was filled with PBS prior scanning. The total PGRN fluorescent signal from the cells was obtained by a plate reader with 593/618 nm (Ex/Em) settings. […]
molecule,measurement,setting,value
"ALRQLL [human PGRN588–593, custom-synthesized C-terminal peptide of human PGRN, -ALRQLL]",inhibition of full-length PGRN endocytosis,[1],93%
same,inhibition of PGRN–SORT1 co-immunoprecipitation,[2],significantly reduced the amount of rPGRN
"ELYENKPRRPYIL [NTS, neurotensin, reference compound]",inhibition of full-length PGRN endocytosis,[1],90%
same,inhibition of PGRN–SORT1 co-immunoprecipitation,[2],significantly reduced the amount of rPGRN
N-rP: human recombinant PGRN with 6-histidine tag on the amino-terminus,rPGRN binding to immobilized SORT1,[3],specific binding signal
same,endocytosis of tagged rPGRN,"[4]; M17 cells expressing titrated amounts of SORT1, western blot",dependently endocytosed
"PGRN574–593 peptide: synthetic PGRN574–593 peptide, molecular weight 2430 Da",cleavage by neutrophil elastase,"[5]; 7 μg peptide, 20 μg NE, 25 μl, 37°C, sampled every 10 min to 1 h",enzymatically cleaved by recombinant elastase (EL) in a time-dependent manner
same,cleavage site / residues removed by elastase,[5]; product 1806 Da from 2430 Da,between residues Ala-588 and Leu-589; also recorded: last five residues were removed by EL
"VPRPLL [mouse Pgrn584–589, mouse ortholog peptide of PGRN588–593, -VPRPLL]",inhibition of full-length PGRN endocytosis,[1],73%
same,inhibition of PGRN–SORT1 co-immunoprecipitation,[2],significantly reduced the amount of rPGRN
B1,SORT1 level after rPGRN treatment,[6],No significant changes in SORT1
same,endocytosis of rPGRN,[4],significantly endocytosed
same,subcellular localization after endocytosis,[4]; M17 cells overexpressing SORT1,endolysosomal localization
B2,endocytosis of rPGRN,[4],failed to be endocytosed
B3,DyL-rPGRN endocytosis response,"[1]; COS-1^SORT1, DyL-rPGRN 0 to 50 nM, 593/618 nm","linear, non-saturated endocytosis response"
same,DyL-rPGRN endocytosis signal,[7],significantly lower signal compared with the WT-hESCs
